Source: patent publication US9526727B2, “Inhibitors of beta-secretase” (Vitae Pharmaceuticals, Inc., priority 2012, dated 2016)

Molecular target: hERG channel (Homo sapiens (Human), UniProt Q12809)
Assay: hERG-Channel Assay (Assay 3), whole-cell patch clamp
Type: cell-based
Settings: HEK293 cells stably transfected with hERG cDNA, pH 7.4, 35° C.
Description: hERG-Channel Assay (Assay 3)
• HEK (human embryonic kidney) 293 cells were stably transfected with hERG cDNA. • Pipettes and Solutions:
Cells were superfused with a bath solution containing (mM): NaCl (137), KCl (4.0), MgCl2 (1.0), CaCl2 (1.8), Glucose (10), HEPES (10), pH 7.4 with NaOH. Patch pipettes were made from borosilicate glass tubing using a horizontal puller and filled with pipette solution containing (mM): K-aspartate (130), MgCl2 (5.0), EGTA (5.0), K2ATP (4.0), HEPES (10.0), pH 7.2 with KOH. Resistance of the microelectrodes was in the range between 2 and 5 MΩ.
Stimulation and Recording:
Membrane currents were recorded using an EPC-10 patch clamp amplifier and PatchMaster software. hERG-mediated membrane currents were recorded at 35° C., using the whole-cell configuration of the patch-clamp technique. […] During each inter-pulse interval 4 pulses scaled down by a factor of 0.2 were recorded for a P/n leak subtraction procedure. […]
The different concentrations of the test compound were applied sequentially on each of the different cells investigated. A steady state level of baseline current was measured for at least 6 sweeps prior to the application of the first test compound concentration. […]
Peak current amplitudes were measured 3 ms after the ramp to +40 mV. […]

hERG channel, sequence (Q12809 whole entry): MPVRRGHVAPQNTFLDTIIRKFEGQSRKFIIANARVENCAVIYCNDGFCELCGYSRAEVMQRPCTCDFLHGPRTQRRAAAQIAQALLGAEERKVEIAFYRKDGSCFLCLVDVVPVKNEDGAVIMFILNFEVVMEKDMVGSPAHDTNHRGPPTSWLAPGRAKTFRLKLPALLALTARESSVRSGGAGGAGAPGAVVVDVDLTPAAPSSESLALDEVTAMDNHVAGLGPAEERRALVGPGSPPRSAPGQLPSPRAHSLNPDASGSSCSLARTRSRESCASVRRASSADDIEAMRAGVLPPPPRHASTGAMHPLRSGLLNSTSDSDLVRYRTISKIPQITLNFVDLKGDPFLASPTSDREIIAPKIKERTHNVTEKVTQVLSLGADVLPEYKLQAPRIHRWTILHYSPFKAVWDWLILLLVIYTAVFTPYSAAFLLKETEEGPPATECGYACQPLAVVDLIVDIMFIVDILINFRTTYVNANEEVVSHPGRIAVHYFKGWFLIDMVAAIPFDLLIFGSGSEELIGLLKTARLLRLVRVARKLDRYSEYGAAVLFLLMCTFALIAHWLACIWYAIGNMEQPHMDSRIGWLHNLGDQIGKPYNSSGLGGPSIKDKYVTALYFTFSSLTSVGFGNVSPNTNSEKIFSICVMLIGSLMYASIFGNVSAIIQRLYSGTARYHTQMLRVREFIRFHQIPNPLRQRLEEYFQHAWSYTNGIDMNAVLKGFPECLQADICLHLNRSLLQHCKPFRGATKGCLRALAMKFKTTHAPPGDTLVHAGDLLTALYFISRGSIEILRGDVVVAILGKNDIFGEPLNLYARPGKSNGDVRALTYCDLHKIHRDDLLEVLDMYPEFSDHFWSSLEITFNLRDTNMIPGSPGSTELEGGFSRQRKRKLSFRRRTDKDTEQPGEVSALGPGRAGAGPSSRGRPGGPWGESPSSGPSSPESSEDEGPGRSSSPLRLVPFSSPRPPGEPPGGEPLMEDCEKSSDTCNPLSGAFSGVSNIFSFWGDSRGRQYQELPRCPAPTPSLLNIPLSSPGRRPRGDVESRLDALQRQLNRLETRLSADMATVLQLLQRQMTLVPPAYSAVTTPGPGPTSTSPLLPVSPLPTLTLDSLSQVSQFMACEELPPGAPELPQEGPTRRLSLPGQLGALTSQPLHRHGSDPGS

COC1CCC2(CC1)Cc1ccc(C#N)cc1C21N=C(N)N(CC2CCCO2)C1=O (stereo not shown)
inhibition at 10 µM: 16%
